Where a name gives a salt, the structure may show the parent alone.
target: T1, human GPR120 (Homo sapiens, UniProt Q5NUL3); experiment: Measurement of intracellular calcium concentration (FLIPR), GPR120 agonist action; format: cell-based; conditions: 10 μmol/l test compound, human GPR120 expression CHO cells, Fluo-4 AM
T1 construct: expressed in transfected cells
T1 sequence (Q5NUL3 1-361): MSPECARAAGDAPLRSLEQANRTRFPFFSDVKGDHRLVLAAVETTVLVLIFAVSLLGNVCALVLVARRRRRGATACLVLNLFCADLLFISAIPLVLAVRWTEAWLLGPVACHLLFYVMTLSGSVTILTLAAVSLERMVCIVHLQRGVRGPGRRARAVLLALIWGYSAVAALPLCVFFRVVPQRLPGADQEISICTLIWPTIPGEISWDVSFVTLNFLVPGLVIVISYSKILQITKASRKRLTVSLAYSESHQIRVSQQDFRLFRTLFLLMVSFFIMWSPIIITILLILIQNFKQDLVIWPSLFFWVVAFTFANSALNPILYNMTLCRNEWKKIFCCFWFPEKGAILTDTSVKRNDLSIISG
Protocol: Using Lipofectamine 2000 (Invitrogen), cDNA of GPR120 receptor was transfected into CHO/NFAT-BLA cells, and drug-resistant cells were isolated to obtain GPR120 stable expression strains. The GPR120-expressed CHO cells were cultured in DMEM/F12 medium containing 10% fetal bovine serum, 100 units/ml penicillin, 0.1 mg/ml streptomycin sulfate, 250 μg/ml Zeocin, 500 μg/mL Geneticin and 15 mM HEPES. On the day before the measurement day, 4 μM Fluo-4 AM (fluorescence calcium indicator reagent) was incubated to be introduced into the human GPR120 expression CHO cells plated at 20000 cells per well of a 96-well black plate (ViewPlate; Packard) in the presence of 2.5 mM probenecid in a CO2 incubator for 1 hour. To the cells was added the test compound diluted with HBSS solution containing 20 mM HEPES and 2.5 mM probenecid. Variations in the intracellular calcium concentration were measured by Fluorescence Imaging Plate Reader (FLIPR; Molecular Devices) to examine the agonist action, and EC50 values were calculated.

Compared with “N-[4-(3-hydroxyisoxazol-5-yl)benzyl]-3-isopropoxy-N-methylaniline [Example 65]”, “5-(4-(2-(3-ethylphenyl)-1-methylethoxy)phenyl)isoxazol-3-ol [Example 35]” is higher in “Agonistic activity at 10 μmol/l (%)” value: 76% for the first, 98% for the second.

First: COc1cccc(C(F)COc2ccc(-c3cc(O)no3)cc2)c1 (stereo not drawn) [Example 2, 5-(4-(2-fluoro-2-(3-methoxyphenyl)ethoxy)phenyl)isoxazol-3-61]
Second: CC(C)Oc1cccc(C(C)(C)COc2ccc(-c3cc(O)no3)cn2)c1.O=C(O)C(F)(F)F [Example 44]
The “Agonistic activity at 10 μmol/l (%)” value of the first is higher: 110% for the first, 99% for the second.

Going from `CC(Cc1ccc(-c2cc(O)no2)cc1)Oc1ccc(Cl)cc1Cl` (stereo not drawn) [Example 18, 5-(4-(2-(2,4-dichlorophenoxy)propyl)phenyl)isoxazol-3-01] to “N-[4-(3-hydroxyisoxazol-5-yl)benzyl]-3-isopropoxy-N-methylbenzenesulfonamide [Example 51]”, the “Agonistic activity at 10 μmol/l (%)” value falls from 97% to 77%.

same assay, conditions: 10 μmol/l test compound, human GPR120 expression CHO cells, Fluo-4 AM, read-out: Agonistic activity at 10 μmol/l (%)

First: COc1cccc(C(F)(F)COc2ccc(-c3cc(O)no3)cc2)c1 [Example 3, 5-(4-(2,2-difluoro-2-(3-methoxyphenyl)ethoxy)phenyl)isoxazol-3-ol]
Second: CC(C)Oc1cccc(C(C)(C)COc2ccc(-c3cc(O)no3)cc2)c1 [Example 5, 5-(4-(2-methyl-2-(3-isopropoxyphenyl)propoxy)phenyl)-isoxazol-3-ol]
The activation at 10 µM of the first is higher: 105% for the first, 94% for the second.

Compared with `CC(C)Oc1cccc(CN(C)Cc2ccc(-c3cc(O)no3)cc2)c1` [Example 9, 5-(4-(((3-isopropoxybenzyl)(methyl)amino)methyl)phenyl)isoxazol-3-ol], `CC(C)Oc1cccc(C(C)N(C)Cc2ccc(-c3cc(O)no3)cc2)c1` (stereo not drawn) [Example 41, 5-(4-{[[1-(3-isopropoxyphenyl)ethyl](methyl)amino]methyl}phenyl)isoxazol-3-ol] is lower in activation at 10 µM: 100% for the first, 87% for the second.

Going from `CC(C)Oc1cccc(SC(C)Cc2ccc(-c3cc(O)no3)cc2)c1` (stereo not drawn) [Example 55, 5-(4-{2-[(3-isopropoxyphenyl)thio]propyl}phenyl)isoxazol-3-ol] to `CC(C)Oc1cccc(OC(C)Cc2ccc(-c3cc(O)no3)cc2)c1` (stereo not drawn) [Example 52, 5-{4-[2-(3-isopropoxyphenoxy)propyl]phenyl}isoxazol-3-ol], the activation at 10 µM falls from 101% to 96%.

Going from `CC(C)Oc1cccc(CC(C)Oc2ccc(-c3cc(O)no3)nc2)c1` (stereo not drawn) [Example 8, 5-(5-(2-(3-isopropoxyphenyl)-1-methylethoxy)pyridin-2-yl)isoxazol-3-ol] to `CC(C)Oc1cccc(CC(C)Oc2ccc(-c3cc(O)no3)cn2)c1` (stereo not drawn) [Example 7, 5-(6-(2-(3-isopropoxyphenyl)-1-methylethoxy)pyridin-3-yl)isoxazol-3-ol], the activation at 10 µM rises from 96% to 98%.

Going from `CC(C)Oc1cccc(C[C@H](C)Oc2ccc(-c3cc(O)no3)cc2)c1` [Example 21, 5-{4-[((1S)-1-methyl-2-{3-[(1-methylethyl)oxy]phenyl}ethyl)oxy]phenyl}isoxazol-3-ol] to `CC(C)Oc1cc(C[C@H](C)Oc2ccc(-c3cc(O)no3)cc2)ccn1` [Example 63, 5-(4-(((1S)-1-methyl-2-(2-((1-methylethyl)oxy)pyridin-4-yl)ethyl)oxy)phenyl)isoxazol-3-ol Sodium Salt], the activation at 10 µM rises from 95% to 106%.

First: CC(C)Oc1cccc(C(C)COc2ccc(-c3cc(O)no3)cn2)c1 (stereo not drawn) [Example 40, 5-(6-(2-(3-isopropoxyphenyl)propoxy)pyridin-3-yl)isoxazol-3-ol]
Second: CC(C)Oc1cccc(C[C@H](C)Oc2ccc(-c3cc(O)no3)cn2)c1 [Example 27, 5-{6-[((1S)-1-methyl-2-{3-[(1-methylethyl)oxy]phenyl}ethyl)oxy]pyridin-3-yl}isoxazol-3-ol Hydrochloride]
The activation at 10 µM of the first is lower: 95% for the first, 99% for the second.

Compared with `C[C@H](Cc1ccc(Cl)c(OC(F)(F)F)c1)Oc1ccc(-c2cc(O)no2)cc1` [Example 25, 5-{4-[((1R)-2-{4-chloro-3-[(trifluoromethyl)oxy]phenyl}-1-methylethyl)oxy]phenyl}isoxazol-3-ol], `C[C@H](Cc1cccc(OC(F)(F)F)c1)Oc1ccc(-c2cc(O)no2)cc1` [Example 23, 5-{4-[((1R)-1-methyl-2-{3-[(trifluoromethyl)oxy]phenyl}ethyl)oxy]phenyl}isoxazol-3-ol] is higher in activation at 10 µM: 91% for the first, 101% for the second.

Compared with `CC(Cc1cccc(N(C)C)c1)Oc1ccc(-c2cc(O)no2)cc1` (stereo not drawn) [Example 45, 3-{2-[4-(3-hydroxyisoxazol-5-yl)phenoxy]propyl}-N,N-dimethylaniline Hydrochloride], `COc1cccc(OC(C)Cc2ccc(-c3cc(O)no3)cc2)c1` (stereo not drawn) [Example 12, 5-(4-(2-(3-methoxyphenoxy)propyl)phenyl)isoxazol-3-ol] is higher in activation at 10 µM: 85% for the first, 95% for the second.

Compared with `CC(C)Oc1cccc(C[C@@H](C)Oc2ccc(-c3cc(O)no3)c(F)c2)c1` [Example 28, 5-{2-fluoro-4-[((1R)-1-methyl-2-{3-[(1-methylethyl)oxy]phenyl}ethyl)oxy]phenyl}isoxazol-3-ol], `CC(C)Oc1cccc(CC(C)Oc2ccc(-c3cc(O)no3)cc2F)c1` (stereo not drawn) [Example 54, 5-{3-fluoro-4-[2-(3-isopropoxyphenyl)-1-methylethoxy]phenyl}isoxazol-3-ol] is higher in activation at 10 µM: 97% for the first, 100% for the second.

Going from `C[C@H](Cc1ccc(OC(F)(F)F)cc1)Oc1ccc(-c2cc(O)no2)cc1` [Example 24, 5-{4-[((1R)-1-methyl-2-{4-[(trifluoromethyl)oxy]phenyl}ethyl)oxy]phenyl}isoxazol-3-ol] to `CC(C)Oc1cccc(C(=O)C(C)Oc2ccc(-c3cc(O)no3)cc2)c1` (stereo not drawn) [Example 46, 2-[4-(3-hydroxyisoxazol-5-yl)phenoxy]-1-(3-isopropoxyphenyl)propan-1-one], the activation at 10 µM rises from 86% to 91%.

First: CC(C)Oc1cccc(N(C)CCc2ccc(-c3cc(O)no3)cc2)c1 [Example 48, N-{2-[4-(3-hydroxyisoxazol-5-yl)phenyl]ethyl}-3-isopropoxy-N-methylaniline Trifluoroacetate]
Second: CC(C)Oc1cccc(CCN(C)c2ccc(-c3cc(O)no3)cc2)c1 [Example 60, 4-(3-hydroxyisoxazol-5-yl)-N-[2-(3-isopropoxyphenyl)ethyl]-N-methylaniline Trifluoroacetate]
The activation at 10 µM of the first is higher: 92% for the first, 65% for the second.

First: CC(Cc1cccc(OC(C)C)c1)Nc1ccc(-c2cc(O)no2)cc1 (stereo not drawn) [Example 59, 4-(3-hydroxyisoxazol-5-yl)-N-[2-(3-isopropoxyphenyl)-1-methylethyl]aniline Trifluoroacetate]
Second: COc1cc(-c2cc(O)no2)ccc1OC(C)Cc1cccc(OC(C)C)c1 (stereo not drawn) [Example 61, 5-{4-[2-(3-isopropoxyphenyl)-1-methylethoxy]-3-methoxyphenyl}isoxazol-3-ol]
The activation at 10 µM of the first is higher: 96% for the first, 79% for the second.
